This is an account of results in US11932658B2 (BRISTOL-MYERS SQUIBB COMPANY, priority 2016, dated 2024).

Each structure is given as a SMILES string.

The first data set addresses T1, PAR4 (Homo sapiens, UniProt Q96RI0).
T1 construct: expressed in transfected cells; host or cells: HEK293 PAR4 Clone 1.2A (BMS Arctic ID 383940)
T1 sequence (Q96RI0 18-385): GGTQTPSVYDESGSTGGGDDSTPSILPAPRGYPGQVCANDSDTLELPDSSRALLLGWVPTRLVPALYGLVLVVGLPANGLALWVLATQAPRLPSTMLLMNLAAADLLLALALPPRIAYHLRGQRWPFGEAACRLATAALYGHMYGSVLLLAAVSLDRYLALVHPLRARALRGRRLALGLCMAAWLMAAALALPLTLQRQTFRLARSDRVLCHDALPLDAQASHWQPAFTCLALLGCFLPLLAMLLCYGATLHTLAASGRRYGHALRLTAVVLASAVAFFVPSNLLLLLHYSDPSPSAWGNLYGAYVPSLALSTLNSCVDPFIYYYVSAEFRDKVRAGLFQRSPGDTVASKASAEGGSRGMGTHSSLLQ
Briefly: PAR4 FLIPR assay (antagonism of agonist peptide-induced calcium mobilization). It is filed as cell-based.
Conditions: not given
Put shortly: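 Antagonism was taken as block of calcium mobilization evoked by the agonist peptide H-Ala-Phe(4-F)-Pro-Gly-Trp-Leu-Val-Lys-Asn-[…]-NH2, added after 30 min room-temperature compound preincubation in dye-loaded PAR4-transfected HEK293 cells (endogenous PAR1). Fluorescence was read on FDSS, with compound addition alone used as the agonist counter-screen; values come from 11-point concentration-response curves.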
Background: Calcium flux is commonly read through the fluorescence of an indicator in the cells.
As usually defined, the IC50 is the point on the concentration scale where inhibition reaches its midpoint. As to `COc1cnc2c(-c3nc4cc(F)c5c(c4s3)C[C@H](COC(=O)Nc3ccc(-c4ncco4)cc3)O5)cc(C)cc2n1` [Example 207, (R)-(5-fluoro-2-(2-methoxy-7-methylquinoxalin-5-yl)-7,8-dihydrobenzofuro[5,4-d]thiazo 1-7-yl)methyl (4-(oxazol-2-yl)phenyl)carbamate], the IC50 turned out to be 2.2 nM. As for `COC(=O)NC[C@H]1Cc2c(c(F)cc3nc(-c4cc(C)cc5nc(OC)cnc45)sc23)O1` [Example 218, (R)-methyl ((5-fluoro-2-(2-methoxy-7-methylquinoxalin-5-yl)-7,8-dihydrobenzofuro[5,4-d]thiazol-7-yl)methyl)carbamate], the IC50 came to 15 nM. For the compound `COc1cncc(NC(=O)OC[C@H]2COc3c(cc(C)c4nc(-c5cc(C)cc6nc(OC)cnc56)sc34)O2)c1` [Example 43, (R)-(2-(2-methoxy-7-methylquinoxalin-5-yl)-4-methyl-7,8-dihydro-[1,4]dioxino[2′,3′:3,4]benzo[1,2-d]thiazol-7-yl)methyl (5-methoxypyridin-3-yl)carbamate], the IC50 was 7.9 nM. Take `COc1cnc2c(-c3nc4cc(F)c5c(c4s3)C[C@H](COC(=O)Nc3cnc(C)nc3)O5)cc(C)cc2n1` [Example 145, (R)-(5-fluoro-2-(2-methoxy-7-methylquinoxalin-5-yl)-7,8-dihydrobenzofuro[5,4-d]thiazo 1-7-yl)methyl (2-methylpyrimidin-5-yl)carbamate]: the IC50 was 1.8 nM.

For the compound `COc1cnc2c(-c3nc4cc(F)c5c(c4s3)CC(C)(C)O5)cc(C)cc2n1` [Example 200, 5-fluoro-2-(2-methoxy-7-methylquinoxalin-5-yl)-7,7-dimethyl-7,8-dihydrobenzofuro[5,4-d]thiazole], the IC50 turned out to be 7.9 nM. Turning to `COc1cnc2c(-c3nc4cc(F)c5c(c4s3)C[C@@H](COC(=O)Nc3cnc(C)nc3)O5)cc(C)cc2n1` [Example 151, (S)-(5-fluoro-2-(2-methoxy-7-methylquinoxalin-5-yl)-7,8-dihydrobenzofuro[5,4-d]thiazol-7-yl)methyl (2-methylpyrimidin-5-yl)carbamate], the IC50 was found to be 3.9 nM.

`COc1cnc2c(-c3nc4c(Cl)cc5c(c4s3)OC[C@H](COC(=O)Nc3ccc(C#N)nc3)O5)cc(C)cc2n1` [Example 35, (R)-(4-chloro-2-(2-methoxy-7-methylquinoxalin-5-yl)-7,8-dihydro-[1,4]dioxino[2′,3′:3,4]benzo[1,2-d]thiazol-7-yl)methyl (6-cyanopyridin-3-yl)carbamate]: the 50% inhibitory concentration (IC50) worked out at 1.4 nM. On the same count and under the same terms, as for `COc1cnc2c(-c3nc4c(Cl)cc5c(c4s3)OC[C@H](COC(=O)Nc3cncc(C#N)c3)O5)cc(C)cc2n1` [Example 37, (R)-(4-chloro-2-(2-methoxy-7-methylquinoxalin-5-yl)-7,8-dihydro-[1,4]dioxino[2′,3′:3,4]benzo[1,2-d]thiazol-7-yl)methyl (5-cyanopyridin-3-yl)carbamate], the figure is 1.5 nM. For `COc1cnc2c(-c3nc4c(C)cc5c(c4s3)OCC(COC(=O)Nc3cnc(F)c(C)c3)O5)cc(C)cc2n1` (stereo not shown) [Example 122, (2-(2-methoxy-7-methylquinoxalin-5-yl)-4-methyl-7,8-dihydro-[1,4]dioxino[2′,3′:3,4]benzo [1,2-d]thiazol-7-yl)methyl (6-fluoro-5-methylpyridin-3-yl)carbamate], the IC50 amounted to 2.5 nM.

As to `COc1cnc2c(-c3nc4c(Cl)cc5c(c4s3)OC[C@H](COC(=O)Nc3ccc(F)nc3)O5)cc(C)cc2n1` [Example 29, (R)-(4-chloro-2-(2-methoxy-7-methylquinoxalin-5-yl)-7,8-dihydro-[1,4]dioxino[2′,3′:3,4]benzo[1,2-d]thiazol-7-yl)methyl (6-fluoropyridin-3-yl)carbamate], the IC50 was found to be 2.9 nM. `COc1cnc2c(-c3nc4c(Cl)cc5c(c4s3)OC[C@H](COC(=O)Nc3ccc(C)nc3)O5)cc(C)cc2n1` [Example 62]: the IC50 turned out to be 1 nM. Take `COc1cnc2c(-c3nc4c(C)cc5c(c4s3)OC[C@H](COC(=O)Nc3cncc(C#N)c3)O5)cc(C)cc2n1` [Example 51, (R)-(2-(2-methoxy-7-methylquinoxalin-5-yl)-4-methyl-7,8-dihydro-[1,4]dioxino[2′,3′:3,4]benzo[1,2-d]thiazol-7-yl)methyl (5-cyanopyridin-3-yl)carbamate]: the IC50 was found to be 16 nM.

Turning to `COc1ccc(NC(=O)OC[C@H]2COc3c(cc(Cl)c4nc(-c5cc(C)cc6nc(OC)cnc56)sc34)O2)cn1` [Example 1, (R)-(4-chloro-2-(2-methoxy-7-methylquinoxalin-5-yl)-7,8-dihydro-[1,4]dioxino[2′,3′:3,4]benzo[1,2-d]thiazol-7-yl)methyl (6-methoxypyridin-3-yl)carbamate], the IC50 stood at 1.6 nM.

As for `COc1cnc2c(-c3nc4ccc5c(c4s3)OC[C@H](COC(=O)Nc3cnc(C)nc3)O5)cc(C)cc2n1` [Example 103, (R)-(2-(2-methoxy-7-methylquinoxalin-5-yl)-7,8-dihydro-[1,4]dioxino [2′,3′:3,4]benzo[1,2-d]thiazol-7-yl)methyl (2-methylpyrimidin-5-yl)carbamate], the half-inhibitory concentration (IC50) stood at 2.8 nM. As to `COc1cnc2c(-c3nc4ccc5c(c4s3)C[C@@H](CNC(=O)OC3CCCOC3)O5)cc(C)cc2n1` (stereo partly drawn) [Example 234, Tetrahydro-2H-pyran-3-yl (((S)-2-(2-methoxy-7-methylquinoxalin-5-yl)-7,8-dihydrobenzofuro[5,4-d]thiazol-7-yl)methyl)carbamate], the IC50 was determined as 4.3 nM. For the compound `COc1cnc2c(-c3nc4cc(F)c5c(c4s3)C[C@H](COC(=O)Nc3cccnc3)O5)cc(C)cc2n1` [Example 157, (R)-(5-fluoro-2-(2-methoxy-7-methylquinoxalin-5-yl)-7,8-dihydrobenzofuro[5,4-d]thiazo 1-7-yl)methyl pyridin-3-ylcarbamate], the IC50 worked out at 0.8 nM. As for `COc1cnc2c(-c3nc4cc(F)c5c(c4s3)C[C@@H](CNC(=O)OCCF)O5)cc(C)cc2n1` [Example 247, (S)-2-fluoroethyl ((5-fluoro-2-(2-methoxy-7-methylquinoxalin-5-yl)-7,8-dihydrobenzofuro[5,4-d]thiazol-7-yl)methyl)carbamate], the IC50 was 0.7 nM. Still for that read-out and setting: as for `COc1cnc2c(-c3nc4ccc5c(c4s3)OC[C@H](COC(=O)Nc3cnc(C)nc3)O5)cc(Cl)cc2c1` [Example 266, (R)-(2-(6-chloro-3-methoxyquinolin-8-yl)-7,8-dihydro-[1,4]dioxino[2′,3′:3,4]benzo[1,2-d]thiazol-7-yl)methyl (2-methylpyrimidin-5-yl)carbamate], the figure is 2.1 nM.

For a further data set, the system named is washed platelets.
Test: not given
Conditions: not given
On the procedure:
Human blood was collected in ACD (85 mM tri-sodium citrate, 78 mM citric acid, 110 mM D-glucose, pH 4.4) at a ratio of 1.4 ml per 10 ml blood. PRP was isolated by centrifugation at 170 g for 14 minutes and platelets were further pelleted by centrifugation at 1300 g for 6 minutes. Platelets were washed once with 10 ml ACD containing 1 mg/ml bovine serum albumin. Platelets were resuspended at ˜2.5×10^8/ml in Tyrode's Buffer (137 mM NaCl, 2 mM KCl, 1.0 mM MgCl2, 1 mM CaCl2), 5 mM glucose, 20 mM HEPES pH 7.4).
As a reminder, the EC50 is the concentration giving half of the maximal effect. The low end stands for greater potency, the high end for weaker potency. With `C[C@H](N)C(=O)N[C@@H](Cc1ccc(O)cc1)C(=O)N1CCC[C@H]1C(=O)NCC(=O)N[C@@H](CCCCN)C(=O)N[C@@H](Cc1ccccc1)C(=O)O` [AYPGKF], a half-maximal response (EC50) required 12000 nM.

A further data set deals with T2, protease-activated receptor type 4 (PAR4) (Homo sapiens, UniProt Q96RI0).
T2 sequence (Q96RI0 18-385): T1 sequence (Q96RI0 18-385)
Test: not given
The note with it: abstract of J. Med. Chem. 44(22):3746-3749 (2001); cited from earlier work.
For `CCOC(=O)c1ccc(-c2nn(Cc3ccccc3)c3ccccc23)cc1` [YD-3, ethyl 4-(1-benzyl-1H-indazol-3-yl)benzoate], the “Inhibition of PAR4-dependent platelet activation” value was “selective and potent inhibitor”.

A further data set has as its target T3, PAR1 (Homo sapiens, UniProt P25116).
T3 construct: in the TRACER phase III trial in ACS patients; host or cells: ACS patients (clinical trial)
T3 sequence (P25116 22-425): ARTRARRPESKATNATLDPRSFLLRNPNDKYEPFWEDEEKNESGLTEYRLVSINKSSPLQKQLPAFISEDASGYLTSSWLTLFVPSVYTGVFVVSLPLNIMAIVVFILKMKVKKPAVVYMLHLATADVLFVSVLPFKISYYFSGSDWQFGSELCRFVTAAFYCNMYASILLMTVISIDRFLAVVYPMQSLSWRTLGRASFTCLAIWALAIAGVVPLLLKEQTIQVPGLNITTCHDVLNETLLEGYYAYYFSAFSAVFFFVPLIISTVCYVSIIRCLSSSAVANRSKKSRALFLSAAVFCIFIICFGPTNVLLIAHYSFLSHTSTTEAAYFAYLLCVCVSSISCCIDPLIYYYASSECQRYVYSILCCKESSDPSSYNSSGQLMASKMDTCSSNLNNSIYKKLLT
Test: not given
Conditions: ACS patients, TRACER phase III trial; cited from earlier work.
Regarding `CCOC(=O)N[C@@H]1CC[C@@H]2[C@@H](C1)C[C@H]1C(=O)O[C@H](C)[C@H]1[C@H]2/C=C/c1ccc(-c2cccc(F)c2)cn1` [vorapaxar], the Cardiovascular events entry is on record as “did not significantly reduce” and the “Risk of major bleeding” value is given as “significantly increased”.
